This note sets out measurements from US7932270B2 (Cytokinetics, Inc., priority 2006, dated 2011).

The target of the assay is T1, chicken gizzard smooth muscle myosin subfragment-1 chemically crosslinked to cardiac or skeletal actin (Gallus gallus, UniProt P10587).
T1 construct: chicken gizzard smooth muscle myosin subfragment-1; from tissue; host or cells: chicken gizzard
As to the kind of experiment: Smooth muscle myosin ATPase dose response assay (pyruvate kinase/horseradish peroxidase/pyruvate oxidase-coupled, amplex red fluorescence). It counts as biochemical. The settings on record: read-out: IC50 Arithmetic Mean. The method in brief:
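ATPase monitored by amplex red fluorescence (ex 480/em 615 nm) via pyruvate oxidase/HRP coupling, pH 7.00, ATP 0.15 mM. Enzyme: smooth muscle S1-actin crosslinked conjugate, amount set empirically by titration. Dose-response fitted with 4-parameter Hill equation for IC50.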

Molecules are shown by their SMILES.

T1 sequence (P02607 2-151): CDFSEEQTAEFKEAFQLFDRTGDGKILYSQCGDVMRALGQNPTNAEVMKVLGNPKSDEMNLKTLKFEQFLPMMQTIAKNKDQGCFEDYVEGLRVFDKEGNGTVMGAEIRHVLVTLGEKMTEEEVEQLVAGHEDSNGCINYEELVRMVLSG
T1 sequence (P10587 84-789): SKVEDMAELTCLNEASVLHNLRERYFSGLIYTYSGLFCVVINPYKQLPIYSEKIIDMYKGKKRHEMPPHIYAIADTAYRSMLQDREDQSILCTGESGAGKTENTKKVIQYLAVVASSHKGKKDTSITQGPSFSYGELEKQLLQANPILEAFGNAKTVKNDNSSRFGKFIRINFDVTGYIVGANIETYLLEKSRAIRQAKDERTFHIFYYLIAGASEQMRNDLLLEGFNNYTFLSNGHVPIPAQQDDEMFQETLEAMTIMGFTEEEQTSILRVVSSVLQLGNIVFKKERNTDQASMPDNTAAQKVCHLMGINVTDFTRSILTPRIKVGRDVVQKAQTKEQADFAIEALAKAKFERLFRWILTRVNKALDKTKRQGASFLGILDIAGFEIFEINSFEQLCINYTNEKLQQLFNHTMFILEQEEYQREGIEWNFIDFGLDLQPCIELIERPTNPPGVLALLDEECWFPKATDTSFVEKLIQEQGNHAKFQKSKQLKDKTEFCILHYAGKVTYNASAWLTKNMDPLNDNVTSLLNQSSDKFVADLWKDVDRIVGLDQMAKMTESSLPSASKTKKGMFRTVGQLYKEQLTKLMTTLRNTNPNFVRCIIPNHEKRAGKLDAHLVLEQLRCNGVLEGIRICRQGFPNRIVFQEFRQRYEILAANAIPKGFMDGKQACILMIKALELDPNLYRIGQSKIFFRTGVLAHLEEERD

In general, IC50 refers to the concentration needed to halve the response being measured. With `NCC(=O)N1CC[C@@H]1CNC(=O)c1ccc(-c2cn[nH]c2)nc1NCCc1cccc(F)c1` [N-{[(2R)-1-(2-aminoacetyl)azetidin-2-yl]methyl}(2-{[2-(3-fluorophenyl)ethyl]amino}-6-pyrazol-4-yl(3-pyridyl))carboxamide], the IC50 was determined as 562 nM.

For `Cn1cc(-c2nc(NCCc3cccc(F)c3)c(C(=O)NC[C@H]3CCN3C(=O)CN)cc2F)cn1` [N-{[(2R)-1-(2-aminoacetyl)azetidin-2-yl]methyl}(5-fluoro-2-{[2-(3-fluorophenyl)ethyl]amino}-6-(1-methylpyrazol-4-yl)(3-pyridyl))carboxamide], the IC50 worked out at 50 nM.

Take `N#Cc1ccccc1-c1ccc(C(=O)NC[C@H]2CCN2C(=O)CN)c(NCCc2cccc(F)c2)n1` [N-{[(2R)-1-(2-aminoacetyl)azetidin-2-yl]methyl}(6-(2-cyanophenyl)-2-{[2-(3-fluorophenyl)ethyl]amino}(3-pyridyl))carboxamide]: the IC50 was 44 nM.

For the compound `N#Cc1ccccc1-c1ccc(C(=O)NC[C@H]2CNCCN2C(=O)CN)c(NCCc2cccc(F)c2)n1` [N-{[(2R)-1-(2-aminoacetyl)piperazin-2-yl]methyl}(6-(2-cyanophenyl)-2-{[2-(3-fluorophenyl)ethyl]amino}(3-pyridyl))carboxamide], the IC50 was found to be 2780 nM.

In the case of `Cn1cc(-c2ccc(C(=O)NC[C@H]3CCCN3C(=O)CN)c(NCCc3cccc(F)c3)n2)cn1` [N-{[(2R)-1-(2-aminoacetyl)pyrrolidin-2-yl]methyl}(2-{[2-(3-fluorophenyl)ethyl]amino}-6-(1-methylpyrazol-4-yl)(3-pyridyl))carboxamide], the IC50 was 581 nM.

On to `Cn1cc(-c2nc(NCCc3cccc(F)c3)c(C(=O)NC[C@H]3CCCN3C(=O)CN)cc2F)cn1` [N-{[(2R)-1-(2-aminoacetyl)pyrrolidin-2-yl]methyl}(5-fluoro-2-{[2-(3-fluorophenyl)ethyl]amino}-6-(1-methylpyrazol-4-yl)(3-pyridyl))carboxamide], for which the IC50 came out at 66 nM.

For the compound `NCC(=O)N1CCC[C@@H]1CNC(=O)c1cc(F)c(-c2cc[nH]n2)nc1NCCc1cccc(F)c1` [N-{[(2R)-1-(2-aminoacetyl)pyrrolidin-2-yl]methyl}(5-fluoro-2-{[2-(3-fluorophenyl)ethyl]amino}-6-pyrazol-3-yl(3-pyridyl))carboxamide], the IC50 was found to be 108 nM.

Regarding `NCC(=O)N1CCC[C@@H]1CNC(=O)c1cc(F)c(-c2cn[nH]c2)nc1NCCc1cccc(F)c1` [N-{[(2R)-1-(2-aminoacetyl)pyrrolidin-2-yl]methyl}(5-fluoro-2-{[2-(3-fluorophenyl)ethyl]amino}-6-pyrazol-4-yl(3-pyridyl))carboxamide], the IC50 is 61 nM.

`N#Cc1ccccc1-c1ccc(C(=O)NC[C@H]2CCCN2C(=O)CN)c(NCCc2cccc(F)c2)n1` [N-{[(2R)-1-(2-aminoacetyl)pyrrolidin-2-yl]methyl}(6-(2-cyanophenyl)-2-{[2-(3-fluorophenyl)ethyl]amino}(3-pyridyl))carboxamide]: the IC50 came to 25 nM.

`N#Cc1ccccc1-c1nc(NCCc2cccc(F)c2)c(C(=O)NC[C@H]2CCCN2C(=O)CN)cc1F` [N-{[(2R)-1-(2-aminoacetyl)pyrrolidin-2-yl]methyl}(6-(2-cyanophenyl)-5-fluoro-2-{[2-(3-fluorophenyl)ethyl]amino}(3-pyridyl))carboxamide]: the IC50 was 40 nM.

Take `N#Cc1ccccc1-c1ccc(C(=O)NC[C@H]2CCC(=O)N2CCN)c(NCCc2cccc(F)c2)n1` [N-{[(2R)-1-(2-aminoethyl)-5-oxopyrrolidin-2-yl]methyl}(6-(2-cyanophenyl)-2-{[2-(3-fluorophenyl)ethyl]amino}(3-pyridyl))carboxamide]: the IC50 was determined as 110 nM.

As for `N#Cc1ccccc1-c1ccc(C(=O)NC[C@H]2CCCN2CCN)c(NCCc2cccc(F)c2)n1` [N-{[(2R)-1-(2-aminoethyl)pyrrolidin-2-yl]methyl}(6-(2-cyanophenyl)-2-{[2-(3-fluorophenyl)ethyl]amino}(3-pyridyl))carboxamide], the IC50 turned out to be 705 nM.

As to `Cn1cc(-c2nc(NCCc3cccc(F)c3)c(C(=O)NC[C@H]3CCN3C(=O)C(C)(C)O)cc2F)cn1` [N-{[(2R)-1-(2-hydroxy-2-methylpropanoyl)azetidin-2-yl]methyl}(5-fluoro-2-{[2-(3-fluorophenyl)ethyl]amino}-6-(1-methylpyrazol-4-yl)(3-pyridyl))carboxamide], the IC50 is 141 nM.

Turning to `O=C(NC[C@H]1CCN1C(=O)CO)c1ccc(-c2ccc(CO)s2)nc1NCCc1cccc(F)c1` [N-{[(2R)-1-(2-hydroxyacetyl)azetidin-2-yl]methyl}(2-{[2-(3-fluorophenyl)ethyl]amino}-6-[5-(hydroxymethyl)(2-thienyl)](3-pyridyl))carboxamide], the IC50 came to 2540 nM.

For the compound `O=C(NC[C@H]1CCN1C(=O)CO)c1ccc(-c2cn[nH]c2)nc1NCCc1cccc(F)c1` [N-{[(2R)-1-(2-hydroxyacetyl)azetidin-2-yl]methyl}(2-{[2-(3-fluorophenyl)ethyl]amino}-6-pyrazol-4-yl(3-pyridyl))carboxamide], the half-inhibitory concentration (IC50) was 559 nM.

With `Cn1cc(-c2nc(NCCc3cccc(F)c3)c(C(=O)NC[C@H]3CCN3C(=O)CO)cc2F)cn1` [N-{[(2R)-1-(2-hydroxyacetyl)azetidin-2-yl]methyl}(5-fluoro-2-{[2-(3-fluorophenyl)ethyl]amino}-6-(1-methylpyrazol-4-yl)(3-pyridyl))carboxamide], the IC50 is 47 nM.

Take `O=C(NC[C@H]1CCN1C(=O)CO)c1cc(F)c(-c2cn[nH]c2)nc1NCCc1cccc(F)c1` [N-{[(2R)-1-(2-hydroxyacetyl)azetidin-2-yl]methyl}(5-fluoro-2-{[2-(3-fluorophenyl)ethyl]amino}-6-pyrazol-4-yl(3-pyridyl))carboxamide]: the IC50 is 46 nM.

As for `N#Cc1ccccc1-c1ccc(C(=O)NC[C@H]2CCN2C(=O)CO)c(NCCc2cccc(F)c2)n1` [N-{[(2R)-1-(2-hydroxyacetyl)azetidin-2-yl]methyl}(6-(2-cyanophenyl)-2-{[2-(3-fluorophenyl)ethyl]amino}(3-pyridyl))carboxamide], the IC50 came out at 40 nM.

On to `Cn1cc(-c2ccc(C(=O)NC[C@H]3CCCN3C(=O)CO)c(NCCc3cccc(F)c3)n2)cn1` [N-{[(2R)-1-(2-hydroxyacetyl)pyrrolidin-2-yl]methyl}(2-{[2-(3-fluorophenyl)ethyl]amino}-6-(1-methylpyrazol-4-yl)(3-pyridyl))carboxamide], for which the IC50 came out at 1780 nM.

As to `O=C(NC[C@H]1CCCN1C(=O)CO)c1ccc(-c2cn[nH]c2)nc1NCCc1cccc(F)c1` [N-{[(2R)-1-(2-hydroxyacetyl)pyrrolidin-2-yl]methyl}(2-{[2-(3-fluorophenyl)ethyl]amino}-6-pyrazol-4-yl(3-pyridyl))carboxamide], the IC50 was 1190 nM.

Take `N#Cc1ccccc1-c1ccc(C(=O)NC[C@H]2CCCN2C(=O)CO)c(NCCc2cccc(F)c2)n1` [N-{[(2R)-1-(2-hydroxyacetyl)pyrrolidin-2-yl]methyl}(6-(2-cyanophenyl)-2-{[2-(3-fluorophenyl)ethyl]amino}(3-pyridyl))carboxamide]: the 50% inhibitory concentration (IC50) was 116 nM.

For the compound `N#Cc1ccccc1-c1ccc(C(=O)NC[C@H]2CCCCN2C(=O)CCN)c(NCCc2cccc(F)c2)n1` [N-{[(2R)-1-(3-aminopropanoyl)(2-piperidyl)]methyl}(6-(2-cyanophenyl)-2-{[2-(3-fluorophenyl)ethyl]amino}(3-pyridyl))carboxamide], the IC50 came out at 155 nM.

Turning to `N#Cc1ccccc1-c1ccc(C(=O)NC[C@H]2CCN2C(=O)CCN)c(NCCc2cccc(F)c2)n1` [N-{[(2R)-1-(3-aminopropanoyl)azetidin-2-yl]methyl}(6-(2-cyanophenyl)-2-{[2-(3-fluorophenyl)ethyl]amino}(3-pyridyl))carboxamide], the IC50 worked out at 45 nM.

With `N#Cc1ccccc1-c1ccc(C(=O)NC[C@H]2CNCCN2C(=O)CCN)c(NCCc2cccc(F)c2)n1` [N-{[(2R)-1-(3-aminopropanoyl)piperazin-2-yl]methyl}(6-(2-cyanophenyl)-2-{[2-(3-fluorophenyl)ethyl]amino}(3-pyridyl))carboxamide], the IC50 is 4890 nM.

For the compound `Cn1cc(-c2ccc(C(=O)NC[C@H]3CCCN3C(=O)CCN)c(NCCc3cccc(F)c3)n2)cn1` [N-{[(2R)-1-(3-aminopropanoyl)pyrrolidin-2-yl]methyl}(2-{[2-(3-fluorophenyl)ethyl]amino}-6-(1-methylpyrazol-4-yl)(3-pyridyl))carboxamide], the IC50 was 587 nM.

As to `Cn1cc(-c2nc(NCCc3cccc(F)c3)c(C(=O)NC[C@H]3CCCN3C(=O)CCN)cc2F)cn1` [N-{[(2R)-1-(3-aminopropanoyl)pyrrolidin-2-yl]methyl}(5-fluoro-2-{[2-(3-fluorophenyl)ethyl]amino}-6-(1-methylpyrazol-4-yl)(3-pyridyl))carboxamide], the IC50 stood at 70 nM.

Regarding `NCCC(=O)N1CCC[C@@H]1CNC(=O)c1cc(F)c(-c2cn[nH]c2)nc1NCCc1cccc(F)c1` [N-{[(2R)-1-(3-aminopropanoyl)pyrrolidin-2-yl]methyl}(5-fluoro-2-{[2-(3-fluorophenyl)ethyl]amino}-6-pyrazol-4-yl(3-pyridyl))carboxamide], the IC50 came out at 90 nM.

`N#Cc1ccccc1-c1ccc(C(=O)NC[C@H]2CCCN2C(=O)CCN)c(NCCc2cccc(F)c2)n1` [N-{[(2R)-1-(3-aminopropanoyl)pyrrolidin-2-yl]methyl}(6-(2-cyanophenyl)-2-{[2-(3-fluorophenyl)ethyl]amino}(3-pyridyl))carboxamide]: the IC50 came out at 47 nM.

On to `N#Cc1ccccc1-c1nc(NCCc2cccc(F)c2)c(C(=O)NC[C@H]2CCCN2C(=O)CCN)cc1F` [N-{[(2R)-1-(3-aminopropanoyl)pyrrolidin-2-yl]methyl}(6-(2-cyanophenyl)-5-fluoro-2-{[2-(3-fluorophenyl)ethyl]amino}(3-pyridyl))carboxamide], for which the IC50 amounted to 42 nM.
